This passage reports MIC results from ChEMBL document CHEMBL1144513, “Synthesis and SAR study of novel 7-(pyridinium-3-yl)-carbonyl imidazo[5,1-b]thiazol-2-yl carbapenems” (2007).

SMILES strings stand for the structures. In brackets after ≈: the same amount, converted by molar mass.

What all share (format): functional
Experiment [1] has as its system Staphylococcus aureus. The experiment in a line: Antibacterial activity against Staphylococcus aureus 209P JC1 by agar dilution method.
Experiment [2] has as its system Staphylococcus aureus. In words: Antibacterial activity against methicillin-resistant Staphylococcus aureus M126 by agar dilution method.
The subject of experiment [3] is Staphylococcus aureus. The experiment in a line: Antibacterial activity against carbapenem and methicillin-resistant Staphylococcus aureus M126HR by agar dilution method. A general note: Agar dilution tests growth on a series of plates holding different concentrations.
The test system of experiment [4] is Streptococcus pneumoniae. The experiment in a line: Antibacterial activity against penicillin-resistant Streptococcus pneumoniae KK133 by agar dilution method.
Experiment [5] deals with Escherichia coli. The experiment in a line: Antibacterial activity against Escherichia coli NIHJ JC2 by agar dilution method.
In experiment [6] the test system is Klebsiella pneumoniae. The experiment in a line: Antibacterial activity against Klebsiella pneumoniae GN69 by agar dilution method.
In experiment [7] the test system is Moraxella catarrhalis. The experiment in a line: Antibacterial activity against Moraxella catarrhalis W-0500 by agar dilution method.
The subject of experiment [8] is Haemophilus influenzae. The experiment in a line: Antibacterial activity against beta-lactamase-negative ampicillin-resistant Haemophilus influenzae 870 by agar dilution method.

With `C[C@@H](O)[C@H]1C(=O)N2C(C(=O)O)=C(c3cn4cnc(C(=O)c5cncs5)c4s3)[C@H](C)[C@H]12`, the MIC in experiment [1] was at most 0.008 µg/mL; in experiment [2] it was 0.031 µg/mL (≈ 0.0697 µM); in experiment [3] it was 4 µg/mL (≈ 9 µM); in experiment [4] it was 0.031 µg/mL (≈ 0.0697 µM); in experiment [5], 1 µg/mL (≈ 2.25 µM); in experiment [6] it was 2 µg/mL (≈ 4.5 µM). In addition, the MIC in experiment [7] was found to be 0.016 µg/mL (≈ 0.036 µM); in experiment [8] it was 0.063 µg/mL (≈ 0.142 µM).
`CCc1nc(C(=O)c2ccc[n+](CC(N)=O)c2)c2sc(C3=C(C(=O)[O-])N4C(=O)[C@H]([C@@H](C)O)[C@H]4[C@H]3C)cn12`: the MIC turned out to be 0.016 µg/mL (≈ 0.0306 µM) in experiment [1]; 1 µg/mL (≈ 1.91 µM) in experiment [2]; 4 µg/mL (≈ 7.64 µM) in experiment [3]; 0.031 µg/mL (≈ 0.0592 µM) in experiment [4]; 2 µg/mL (≈ 3.82 µM) in experiment [5]; 4 µg/mL (≈ 7.64 µM) in experiment [6]. Further, the MIC is 0.031 µg/mL (≈ 0.0592 µM) in experiment [7] and 0.063 µg/mL (≈ 0.12 µM) in experiment [8].
For `C[C@@H](O)[C@H]1C(=O)N2C(C(=O)O)=C(c3cn4cnc(C(=O)c5cccnc5)c4s3)[C@H](C)[C@H]12`, the MIC in experiment [1] was at most 0.008 µg/mL; in experiment [2] it was 1 µg/mL (≈ 2.28 µM); in experiment [3] it was 4 µg/mL (≈ 9.12 µM); in experiment [4] it was 0.031 µg/mL (≈ 0.0707 µM); in experiment [5], 1 µg/mL (≈ 2.28 µM); in experiment [6], 2 µg/mL (≈ 4.56 µM). For the same compound, the MIC worked out at 0.016 µg/mL (≈ 0.0365 µM) in experiment [7] and 0.031 µg/mL (≈ 0.0707 µM) in experiment [8].
As to `CCOC(=O)C[n+]1cccc(C(=O)c2ncn3cc(C4=C(C(=O)[O-])N5C(=O)[C@H]([C@@H](C)O)[C@H]5[C@H]4C)sc23)c1`, the MIC worked out at 0.016 µg/mL (≈ 0.0305 µM) in experiment [1]; 2 µg/mL (≈ 3.81 µM) in experiment [2]; 8 µg/mL (≈ 15.3 µM) in experiment [3]; 0.063 µg/mL (≈ 0.12 µM) in experiment [4]; 0.031 µg/mL (≈ 0.0591 µM) in experiment [5]; 0.063 µg/mL (≈ 0.12 µM) in experiment [6]. Also, the MIC in experiment [7] was 0.031 µg/mL (≈ 0.0591 µM); in experiment [8], 0.063 µg/mL (≈ 0.12 µM).
For the compound `C[C@@H](O)[C@H]1C(=O)N2C(C(=O)[O-])=C(c3cn4cnc(C(=O)c5ccc[n+](CCN(C)C)c5)c4s3)[C@H](C)[C@H]12`, the MIC was at most 0.008 µg/mL in experiment [1]; 1 µg/mL (≈ 1.96 µM) in experiment [2]; 4 µg/mL (≈ 7.85 µM) in experiment [3]; 0.031 µg/mL (≈ 0.0608 µM) in experiment [4]; 0.125 µg/mL (≈ 0.245 µM) in experiment [5]; 0.25 µg/mL (≈ 0.491 µM) in experiment [6]. Further, the MIC in experiment [7] is 0.031 µg/mL (≈ 0.0608 µM); in experiment [8], 0.063 µg/mL (≈ 0.124 µM).
For `C[C@@H](O)[C@H]1C(=O)N2C(C(=O)[O-])=C(c3cn4c(Cl)nc(C(=O)c5ccc[n+](CC(N)=O)c5)c4s3)[C@H](C)[C@H]12`, the MIC came out at 0.008 µg/mL (≈ 0.0151 µM) in experiment [1]; 0.5 µg/mL (≈ 0.943 µM) in experiment [2]; 2 µg/mL (≈ 3.77 µM) in experiment [3]; 0.031 µg/mL (≈ 0.0585 µM) in experiment [4]; 1 µg/mL (≈ 1.89 µM) in experiment [5]; 2 µg/mL (≈ 3.77 µM) in experiment [6]. For the same compound, the MIC in experiment [7] was 0.016 µg/mL (≈ 0.0302 µM); in experiment [8], 0.063 µg/mL (≈ 0.119 µM).
Turning to `C[C@@H](O)[C@H]1C(=O)N2C(C(=O)O)=C(c3cn4cnc(C(=O)C5CCNCC5)c4s3)[C@H](C)[C@H]12`, the MIC in experiment [1] came out at 0.008 µg/mL (≈ 0.018 µM); in experiment [2] it was 1 µg/mL (≈ 2.25 µM); in experiment [3], 4 µg/mL (≈ 9 µM); in experiment [4] it was 0.063 µg/mL (≈ 0.142 µM); in experiment [5] it was 0.063 µg/mL (≈ 0.142 µM); in experiment [6], 0.125 µg/mL (≈ 0.281 µM). Besides, the MIC in experiment [7] came to 0.031 µg/mL (≈ 0.0697 µM); in experiment [8] it was 0.063 µg/mL (≈ 0.142 µM).
With `C[C@@H](O)[C@H]1C(=O)N2C(C(=O)O)=C(c3cn4cnc(C(=O)C5CCCCN5)c4s3)[C@H](C)[C@H]12` (some centres undefined), the MIC in experiment [1] came out at 0.016 µg/mL (≈ 0.036 µM); in experiment [2], 1 µg/mL (≈ 2.25 µM); in experiment [3], 4 µg/mL (≈ 9 µM); in experiment [4] it was 0.125 µg/mL (≈ 0.281 µM); in experiment [5], 0.125 µg/mL (≈ 0.281 µM); in experiment [6], 0.25 µg/mL (≈ 0.562 µM). Further, the values for the MIC in experiment [7] and in experiment [8] were 0.063 µg/mL (≈ 0.142 µM) and 0.25 µg/mL (≈ 0.562 µM), respectively.
